Earlier results in patent publication US6491617B1, “Medical devices that resist restenosis” (St. Jude Medical, Inc., priority 1999, dated 2002).

Settings: nitric oxide-releasing agent, test system not stated

Row | IC50 (read-out: IC-50 concentration, i.e., a concentration at 50 percent effectiveness) [nM] | Molecule | effective concentration [nM]
1 | 19.7 | NCCCNCCCCNCCCN [Spermine, H2N(CH2)3NH2^+(CH2)4N[NONO]^−(CH2)3NH2] | 
2 |  | NaO[NONO]Na [nitro percide] | 25
